According to patent US20250197451A1, “USE OF BIOACTIVE POLYPEPTIDE SYNTHESIZED ON BASIS OF KDM2B SEQUENCE IN NEURAL DIFFERENTIATION AND REGENERATION AND REPAIR OF MESENCHYMAL STEM CELLS” (CAPITAL MEDICAL UNIVERSITY SCHOOL OF STOMATOLOGY, priority 2021, published 2025):
Several values for one entry are separate records, joined by “and”; a condition that tells them apart may be missing. Equal values may be shown once. Ends that are not written are not given here.

Columns and labels:
[1] = test system: stem cells from apical papilla (SCAPs); test: neural induction in vitro: neurosphere formation with βIII-TUBULIN / NESTIN immunofluorescence staining; assay type: cell-based, human
Excerpt: […]

[2] = test system: KDM2B; test: real-time fluorescence reverse transcription quantitative PCR, KDM2B/GAPDH in SCAPs; assay type: cell-based, human
Method: The plasmid was constructed according to standard methods. The complementary shRNA sequence targeting KDM2B gene was cloned into the viral vector pLKO.1 plasmid, sequenced and identified to complete the construction of the KDM2B shRNA plasmid. After PCR primers were designed for the full-length sequence of the KDM2B gene, the full-length sequence of the KDM2B gene was obtained by amplification, and the HA Tag was added. The tagged full-length KDM2B gene was ligated with the pQCXIN retroviral expression vector, sequenced and identified to obtain the plasmid containing the HA tagged full-length KDM2B gene. The virus packaging was carried out, and the resulting virus was collected, and the virus titer was measured. The virus was aliquoted and stored in the refrigerator at −80° C. The virus at a titer of 10-7 was incubated with stem cells from apical papillae in the presence of polybrene for 48 hours for infection, and the antibiotic was used to screen the infected cells. The sequence of the complementary shRNA targeting the KDM2B gene was represented as KDM2Bsh, with a nucleic acid sequence of 5′-[…]-3′ (SEQ ID NO: 287).

[3] = biological target: EZH2 protein (Homo sapiens, UniProt Q15910); test: KDM2B polypeptide microarray immune-hybridization with biotin-labelled EZH2 protein; assay type: binding; settings: for Intensity (%) (gray intensity of colored points on the KDM2B polypeptide microarray): biotin-labelled EZH2 1 μg/ml, highest optical density set to 100%, some points noise/spike; for binding site of KDM2B to EZH2 (positive / negative): polypeptide microarray
Sequence of EZH2 protein (Q15910 whole entry, species assumed): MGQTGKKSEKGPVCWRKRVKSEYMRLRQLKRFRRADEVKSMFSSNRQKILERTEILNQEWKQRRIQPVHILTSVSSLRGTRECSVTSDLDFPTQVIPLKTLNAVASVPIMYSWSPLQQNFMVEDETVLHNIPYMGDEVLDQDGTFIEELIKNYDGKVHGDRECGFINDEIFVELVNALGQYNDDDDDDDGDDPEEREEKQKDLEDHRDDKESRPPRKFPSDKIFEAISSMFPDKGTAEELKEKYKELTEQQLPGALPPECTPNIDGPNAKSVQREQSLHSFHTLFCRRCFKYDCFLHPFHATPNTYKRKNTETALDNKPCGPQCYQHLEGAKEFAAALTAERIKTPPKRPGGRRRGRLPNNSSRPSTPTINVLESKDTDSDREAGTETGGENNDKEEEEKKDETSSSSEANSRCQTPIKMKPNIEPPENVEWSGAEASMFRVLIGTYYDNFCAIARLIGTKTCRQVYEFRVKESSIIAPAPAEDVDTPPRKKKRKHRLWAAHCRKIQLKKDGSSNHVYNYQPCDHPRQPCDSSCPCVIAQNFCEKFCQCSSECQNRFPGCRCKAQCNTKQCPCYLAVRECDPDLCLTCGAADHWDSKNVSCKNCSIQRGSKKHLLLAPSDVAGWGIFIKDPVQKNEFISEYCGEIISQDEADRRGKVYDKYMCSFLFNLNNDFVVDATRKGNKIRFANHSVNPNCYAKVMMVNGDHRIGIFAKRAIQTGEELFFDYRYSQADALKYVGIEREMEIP
Excerpt: […]

[4] = test system: rat model of spinal cord injury (complete transection site T10 spinal cord); test: rat model of spinal cord injury, local injection of peptide alone (BBB score, gross appearance); assay type: in vivo; settings: SCI + peptide alone, 10 μg/ml in 30 μl weekly local injection, individual rats
Method: 10 μg/ml of peptide 46-47 in a total of 30 μl was weekly injected into 10-week-old rats at the complete transection site T10 spinal cord (5 individual rats per group).

[5] = test system: rat model of spinal cord injury (completely transected T10 spinal cord); test: rat model of spinal cord injury, transplantation of stem cells from apical papilla (BBB score, gross appearance); assay type: in vivo; settings: SCI + SCAPs pre-treated with 10 μg/ml peptide 24 hours, individual rats
Excerpt: […]

[6] = virally transfected SCAPs (overexpression or knockdown), Day 9, individual samples
[7] = SCAPs + 10 μg/ml peptide, Day 9 of induction, individual samples
[8] = SCAPs + 10 μg/ml peptide, Day 9 of induction, mean of 5 samples

## 5′-ATTTTGACGGGGTGGATAATCTG-3′ (expressed or natural sequence) [KDM2Bsh, complementary shRNA targeting the KDM2B gene, cloned into viral vector pLKO.1, reference compound]
[1]; [6]
  Number of NESTIN-positive neurospheres: 5 and 4 and 2 (2×) and 3
  Number of βIII-TUBULI-positive neurospheres: 4 (2×) and 2 and 6 and 3
[1]; virally transfected SCAPs (overexpression or knockdown), Day 9, mean of 5 samples, Vector 9, Scramsh 9
  Number of βIII-TUBULI-positive neurospheres, Means: 3.8
[1]; virally transfected SCAPs (overexpression or knockdown), Day 9, mean of 5 samples, Vector 11, Scramsh 8.2
  Number of NESTIN-positive neurospheres, Means: 3.2
[2]; individual samples
  Expression of KDM2B/GAPDH in KDM2B-knockdown SCAPs (fold): 0.34 fold and 0.31 fold and 0.28 fold
[2]; mean of 3 samples, Scramsh 1.0003
  Expression of KDM2B/GAPDH in KDM2B-knockdown SCAPs (fold), Means: 0.3067 fold

## A V G T T T R D S L T E I N L (AVGTTTRDSLTEINL; synthesized KDM2B peptide) [compound 253]
[3]
  Intensity (%) (gray intensity of colored points on the KDM2B polypeptide microarray): 70.41%

## C I M R Q C I A P V L P H T A (CIMRQCIAPVLPHTA; synthesized KDM2B peptide) [compound 130]
[3]
  Intensity (%) (gray intensity of colored points on the KDM2B polypeptide microarray): 30.8%

## ConPP: control polypeptide synthesized from the negative binding sites (peptide 83-84) of KDM2B, with cell-penetrating peptide and FITC label (EEEACDQQPQEEEEKDEEGE; also: cell-penetrating peptide and FITC label, sites not given here)
[1]; [7]
  Number of NESTIN-positive neurosphers: 3 (2×) and 4 (2×) and 6
  Number of βIII-TUBULIN-positive neurosphers: 8 (2×) and 6 (2×) and 7
[1]; [8]
  Number of NESTIN-positive neurosphers, Means: 4
  Number of βIII-TUBULIN-positive neurosphers, Means: 7
[4]; 1 w
  BBB score of hind limb motor function: 6 (3×) and 5 (2×)
[4]; 2 w
  BBB score of hind limb motor function: 7 (2×) and 6 (2×) and 8
[4]; 3 w
  BBB score of hind limb motor function: 9 (3×) and 10 and 8
[4]; 4 w
  BBB score of hind limb motor function: 12 (2×) and 11 (3×)
[4]
  BBB score of hind limb motor function: 4 (3×) and 5 (2×)
[5]; 0 w
  BBB score of hind limb motor function: 5 and 4 (4×)
[5]; 1 w
  BBB score of hind limb motor function: 5 (3×) and 6 (2×)
[5]; 2 w
  BBB score of hind limb motor function: 6 (2×) and 7 (3×)
[5]; 3 w
  BBB score of hind limb motor function: 8 (3×) and 9 (2×)
[5]; 4 w
  BBB score of hind limb motor function: 10 (2×) and 11 and 12 and 13

## D Q Q P Q E E E E K D E E G E (DQQPQEEEEKDEEGE; synthesized KDM2B peptide) [peptide 84]
[3]
  binding site of KDM2B to EZH2 (positive / negative): negative

## E E E A C D Q Q P Q E E E E K (EEEACDQQPQEEEEK; synthesized KDM2B peptide) [peptide 83]
[3]
  binding site of KDM2B to EZH2 (positive / negative): negative

## G K Q S D I F L G D R V E R C (GKQSDIFLGDRVERC; synthesized KDM2B peptide) [compound 57]
[3]
  Intensity (%) (gray intensity of colored points on the KDM2B polypeptide microarray): 39.95%

## I Y E I E D R T R V Q P K F R (IYEIEDRTRVQPKFR; synthesized KDM2B peptide) [compound 69]
[3]
  Intensity (%) (gray intensity of colored points on the KDM2B polypeptide microarray): 0.15%

## L A V D Y P K T P T G S P A T (LAVDYPKTPTGSPAT; synthesized KDM2B peptide) [compound 98]
[3]
  Intensity (%) (gray intensity of colored points on the KDM2B polypeptide microarray): 0.77%

## Q P K F R Y P F Y Y E M C W Y (QPKFRYPFYYEMCWY; synthesized KDM2B peptide) [compound 71]
[3]
  Intensity (%) (gray intensity of colored points on the KDM2B polypeptide microarray): 0.57%

## T E I N L S D C N K V T D Q C (TEINLSDCNKVTDQC; synthesized KDM2B peptide) [compound 255]
[3]
  Intensity (%) (gray intensity of colored points on the KDM2B polypeptide microarray): 100%

## T R D S L T E I N L S D C N K (TRDSLTEINLSDCNK; synthesized KDM2B peptide) [compound 254]
[3]
  Intensity (%) (gray intensity of colored points on the KDM2B polypeptide microarray): 100%

## V L E R Y V Y C V T Q R S H L (VLERYVYCVTQRSHL; synthesized KDM2B peptide) [compound 74]
[3]
  Intensity (%) (gray intensity of colored points on the KDM2B polypeptide microarray): 0.25%
